From publication PMC6114962, “A Phase Ib, open-label, dose-finding study of alpelisib in combination with paclitaxel in patients with advanced solid tumors” (Oncotarget, 2018)
Like-named read-outs stand apart in the source and are kept apart here.

Key:
[1] = tested on: patients with advanced solid tumors; test: Phase Ib dose finding: dose-limiting toxicities and MTD of alpelisib QD plus paclitaxel; assay type: in vivo, human; details: with paclitaxel 80 mg/m^2 QW; BLRM with EWOC
Procedure: In the dose-finding phase, the primary objective was to determine the MTD and/or recommended Phase II dose (RP2D) of alpelisib QD when administered with paclitaxel 80 mg/m^2 QW in patients with advanced solid tumors, and the secondary objectives were to assess safety and tolerability and to characterize the pharmacokinetic (PK) profile.
Patients received oral alpelisib QD in 28-day cycles (300, 250, or 150 mg) and paclitaxel 80 mg/m^2 QW as a 1-hour (±15 minutes) IV infusion after standard premedication (per local standard practice). Patients received treatment until disease progression, unacceptable toxicity, patient decision, death, or discontinuation for any other reason. […]
An adaptive 5-parameter Bayesian logistic regression model (BLRM) with escalation with overdose control (EWOC) guided the dose-finding of each combination. […] Available data were analyzed after Cycle 1 per cohort of patients to decide the dose for the next cohort and/or determine the MTD/RP2D. […]

[2] = tested on: patients with advanced solid tumors; assay type: in vivo
Procedure: Patients received oral alpelisib QD in 28-day cycles (300, 250, or 150 mg) and paclitaxel 80 mg/m^2 QW as a 1-hour (±15 minutes) IV infusion after standard premedication (per local standard practice). Patients received treatment until disease progression, unacceptable toxicity, patient decision, death, or discontinuation for any other reason.
(§1) PK samples for alpelisib were collected from all patients.
(§2) Analysis sets were as follows: full analysis set (FAS), all patients who received at least one dose of alpelisib and/or paclitaxel; safety set, all patients who received at least one dose of alpelisib and/or paclitaxel and had at least one valid post-baseline safety assessment; dose-determining set (DDS), all patients from the safety set who during Cycle 1 either met the minimum exposure criterion and had sufficient safety evaluations, or experienced a DLT; and pharmacokinetic analysis set, all patients in the FAS who received at least one dose of alpelisib and/or paclitaxel and had at least one evaluable concentration measurement.

[3] = Plasma pharmacokinetics of paclitaxel and alpelisib in Cycle 1; assay type: in vivo, human; details: for Tmax / AUC(0-t) / Cmax / AUC(0-inf): human, plasma; for AUC(0-t): read-out: AUC0–24, geometric mean (CV%); for Cmax: read-out: Cmax, geometric mean (CV%); for AUC(0-inf): read-out: AUCinf, geometric mean (CV%)
Text: as §1, §2

patients [4] = details: cited from earlier work
[5] = tested on: patients with advanced solid tumors; details: cited from earlier work
patients [6] = tested on: patients; parameters: method as in PMID 22184370; details: paclitaxel 80 mg/m^2 QW, 1-hour IV infusion; cited from earlier work
[7] = alpelisib 150 mg plus paclitaxel
[8] = alpelisib 250 mg plus paclitaxel
[9] = alpelisib 300 mg plus paclitaxel
[10] = po, oral alpelisib 150 mg QD + paclitaxel, C1D8
[11] = po, oral alpelisib 250 mg QD + paclitaxel, C1D8
[12] = po, oral alpelisib 300 mg QD + paclitaxel, C1D8
[13] = iv, 80 mg/m^2, paclitaxel 80 mg/m^2 IV, C1D1, alpelisib 150 mg + paclitaxel cohort
[14] = iv, 80 mg/m^2, paclitaxel 80 mg/m^2 IV, C1D1, alpelisib 250 mg + paclitaxel cohort
[15] = iv, paclitaxel 80 mg/m^2 IV, C1D8, alpelisib 150 mg + paclitaxel cohort
[16] = paclitaxel 80 mg/m^2 IV, C1D1, alpelisib 300 mg + paclitaxel cohort
[17] = paclitaxel 80 mg/m^2 IV, C1D8, alpelisib 250 mg + paclitaxel cohort

## Cc1nc(NC(=O)N2CCC[C@H]2C(N)=O)sc1-c1ccnc(C(C)(C)C(F)(F)F)c1 [alpelisib]
[1]
  MTD of alpelisib when administered with paclitaxel: 150 mg QD
[2]; [7]
  rate of alpelisib dose interruption: 66.7%
  rate of alpelisib dose reduction (at least one): 22.2%
[2]; [8]
  rate of alpelisib dose interruption: 75.0%
  rate of alpelisib dose reduction (at least one): 50.0%
[2]; [9]
  rate of alpelisib dose interruption: 66.7%
  rate of alpelisib dose reduction (at least one): 66.7%
[3]; alpelisib 150–300 mg
  impact of steady-state alpelisib exposure on paclitaxel metabolism: no impact
[3]; alpelisib 150–300 mg QD
  Cmax and AUC0-24 after oral administration versus dose: increased in a dose-dependent manner
[3]; oral, Cycle 1 Day 8, alpelisib 150–300 mg, read-out: Median time to maximum concentration (Tmax) across dose levels
  Tmax: 3.17 to 4.17 h
[3]; [10]
  AUC(0-t): 13800 ng·h/mL
  Cmax: 1390 ng/mL
[3]; po, oral alpelisib 150 mg QD + paclitaxel, C1D8, read-out: Tmax, median (range)
  Tmax: 3.17 h
[3]; [11]
  AUC(0-t): 27700 ng·h/mL
  Cmax: 3750 ng/mL
[3]; po, oral alpelisib 250 mg QD + paclitaxel, C1D8, read-out: Tmax, median (range)
  Tmax: 3.23 h
[3]; [12]
  AUC(0-t): 37100 ng·h/mL
  Cmax: 3000 ng/mL
[3]; po, oral alpelisib 300 mg QD + paclitaxel, C1D8, read-out: Tmax, median (range)
  Tmax: 4.17 h
Patients [4]; Phase I study (N=10)
  MTD of alpelisib with nab-paclitaxel: not reached
Patients [4]; plus nab-paclitaxel 100 mg/m^2 IV weekly
  recommended Phase II dose, alpelisib: 350 mg daily
[5]; single-agent alpelisib 30–450 mg QD or 120–200 mg twice daily, N=134
  Grade 3/4 AE: hyperglycemia: 23.9%
[5]; single-agent alpelisib, N=134
  all-grade treatment-related AE: hyperglycemia: 51.5%
[5]; single-agent alpelisib, advanced solid tumors
  maximum tolerated dose (MTD), single agent: 400 mg once daily (QD)
[5]; single-agent alpelisib, seven of 68 evaluable patients
  hyperglycemia DLT during dose finding: 10.3%
[5]; single-agent alpelisib, solid tumors
  dose from which preliminary anti-tumor activity was exhibited: ≥ 270 mg QD
[5]; single-agent alpelisib
  all-grade treatment-related AE: decreased appetite: 41.8%
  all-grade treatment-related AE: diarrhea: 40.3%
  all-grade treatment-related AE: nausea: 50.0%
  all-grade treatment-related AE: vomiting: 31.3%

## CC(=O)O[C@H]1C(=O)[C@@]2(C)[C@H]([C@H](OC(=O)c3ccccc3)[C@]3(O)C[C@H](OC(=O)[C@H](O)[C@@H](NC(=O)c4ccccc4)c4ccccc4)C(C)=C1C3(C)C)[C@]1(OC(C)=O)CO[C@@H]1C[C@@H]2O [paclitaxel]
Patients [6]
  all-grade AE: abdominal pain: 33%
  all-grade AE: alopecia: 36%
  all-grade AE: fatigue: 47%
  all-grade AE: nausea: 31%
  all-grade AE: peripheral neuropathy: 31%
[3]; absence versus presence of alpelisib, except Cmax at alpelisib 300 mg C1D8
  plasma drug exposure (AUCinf and Cmax), Cycle 1 Day 1 versus Cycle 1 Day 8: comparable
[3]; [13]
  AUC(0-inf): 4360 ng·h/mL
  Cmax: 2650 ng/mL
[3]; [14]
  AUC(0-inf): 4320 ng·h/mL
  Cmax: 2770 ng/mL
[3]; iv, 80 mg/m^2, paclitaxel 80 mg/m^2 IV, C1D1, alpelisib 300 mg + paclitaxel cohort
  Cmax: 2700 ng/mL
[3]; [15]
  AUC(0-inf): 4370 ng·h/mL
  Cmax: 2790 ng/mL
[3]; iv, paclitaxel 80 mg/m^2 IV, C1D8, alpelisib 250 mg + paclitaxel cohort
  Cmax: 2960 ng/mL
[3]; iv, paclitaxel 80 mg/m^2 IV, C1D8, alpelisib 300 mg + paclitaxel cohort
  AUC(0-inf): 4470 ng·h/mL
[3]; iv, paclitaxel 80 mg/m^2 IV, C1D8, alpelisib 300 mg + paclitaxel cohort, read-out: Tmax, median (range)
  Tmax: 0.75 h
[3]; paclitaxel 80 mg/m^2 IV, C1D1, alpelisib 150 mg + paclitaxel cohort
  Tmax, median (range): 1 (0.87–1.17) [8] hours
[3]; paclitaxel 80 mg/m^2 IV, C1D1, alpelisib 250 mg + paclitaxel cohort
  Tmax, median (range): 1 (0.45–1.05) [3] hours
[3]; [16]
  AUCinf, geometric mean (CV%): 5000 (24) [5] ng·hr/ml
  Tmax, median (range): 1 (0.5–1.28) [5] hours
[3]; paclitaxel 80 mg/m^2 IV, C1D8, alpelisib 150 mg + paclitaxel cohort
  Tmax, median (range): 1 (0.5–1.07) [9] hours
[3]; [17]
  AUCinf, geometric mean (CV%): 5000 (42.7) [2] ng·hr/ml
  Tmax, median (range): 0.8 (0.5–1.17) [3] hours
[3]; paclitaxel 80 mg/m^2 IV, C1D8, alpelisib 300 mg + paclitaxel cohort
  Cmax, geometric mean (CV%): 1250 (114) [6] ng/ml
